Results on 27 molecules are retold here after ChEMBL document CHEMBL3137547, “Open Source Malaria Deposition 2. http://malaria.ourexperiment.org”.

The subject of this test is Plasmodium falciparum. Description: OSM: Erythrocyte assay. NF54 with 3H-Hypoxanthine at 72hr time point. It is filed as functional, organism-based.

As a reminder, the EC50 is the midpoint of the concentration-response curve. Read a low EC50 as higher potency in that assay. With `COc1ccc2ccc(Oc3cncc4nnc(-c5ccc(OC(F)F)cc5)n34)cc2n1`, the EC50 was determined as 1670 nM. That is a single-digit micromolar value.

In turn, `O=C(NC1CCc2cc(Cl)ccc21)c1cncc2nnc(-c3ccc(OC(F)F)cc3)n12` (configuration not stated) registered an EC50 of 547 nM. This EC50 is about 3.1-fold lower than that of the molecule before.

Regarding `Cc1nn(-c2ccc(F)cc2)c(C)c1-c1nnc2cncc(C(=O)Nc3ccnc(C(F)(F)F)c3)n12`, the EC50 turned out to be 10000 nM.

Turning to `Fc1ccc(C2(C(Oc3cncc4nnc(-c5ccc(OC(F)F)cc5)n34)C(F)(F)F)CC2)cc1F` (configuration not stated), the EC50 was determined as 10000 nM.

`Cn1cc2ccc(Oc3cncc4nnc(-c5ccc(OC(F)F)cc5)n34)cc2n1` gave an EC50 of 6200 nM.

With `OC(COc1cncc2nnc(-c3ccc(OC(F)F)cc3)n12)c1ccc(F)c(F)c1` (configuration not stated), a half-maximal response (EC50) required 124 nM. Compared with the last molecule, the EC50 is about 50-fold lower.

Take `FC(F)Oc1ccc(-c2nnc3cncc(OCc4cccc5ccccc45)n23)cc1`: the EC50 worked out at 1670 nM.

In turn, `Fc1ccc([C@@H]2[C@@H](Oc3cncc4nnc(-c5ccc(OC(F)F)cc5)n34)CN2C2CC2)cc1F` yielded an EC50 of 731 nM.

Molecule `CC(O)(COc1cncc2nnc(-c3ccc(OC(F)F)cc3)n12)c1ccc(F)c(F)c1` (configuration not stated) showed an EC50 of 101 nM.

`FC(F)Oc1ccc(-c2nnc3cncc(Oc4cccc(Oc5ccccn5)c4)n23)cc1` yielded an EC50 of 6040 nM. Compared with the last molecule, the EC50 is about 60-fold higher.

Turning to `FC(F)Oc1ccc(-c2nnc3cncc(OCC4CCc5cc(Cl)ccc54)n23)cc1` (configuration not stated), the EC50 was 1460 nM.

Consider `CC(F)(COc1cncc2nnc(-c3ccc(OC(F)F)cc3)n12)c1ccc(F)c(F)c1` (configuration not stated), for which it took 123 nM to reach a half-maximal effect (EC50).

In the case of `FC(F)Oc1ccc(-c2nnc3cncc(Oc4ccc5nc(C(F)(F)F)ncc5c4)n23)cc1`, the EC50 is 2020 nM.

Take `Fc1ccc(C(F)COc2cncc3nnc(-c4ccc(OC(F)F)cc4)n23)cc1F` (configuration not stated): the EC50 was 65.4 nM. This EC50 lies about 31-fold lower than the previous one.

Consider `FC(F)Oc1ccc(-c2nnc3cncc(Oc4ccc5ccsc5c4)n23)cc1`, for which the midpoint of the response, the EC50, lay at 576 nM.

Turning to `Fc1ccc(CCOc2ccc3nnc(-c4ccc(OC(F)F)cc4)n3n2)cc1F`, the EC50 turned out to be 6780 nM.

`Fc1cc2ccc(Oc3cncc4nnc(-c5ccc(OC(F)F)cc5)n34)cc2cc1F` showed an EC50 of 839 nM.

Turning to `Fc1cc(F)c2ccc(Oc3cncc4nnc(-c5ccc(OC(F)F)cc5)n34)cc2c1`, the EC50 was found to be 173 nM.

Molecule `Fc1ccc(CCNc2ccc3nnc(-c4ccc(OC(F)F)cc4)n3n2)cc1` gave an EC50 of 510 nM.

`O=C(Cc1cccc(Cl)c1)Nc1cn2c(-c3ccc(OC(F)F)cc3)nnc2cn1` returned an EC50 of 10000 nM.

As for `N#Cc1ccc(-c2nnc3ccc(NCCc4cccnc4)nn23)cc1`, the EC50 turned out to be 10000 nM.

Regarding `Cn1ccc2cc(Oc3cncc4nnc(-c5ccc(OC(F)F)cc5)n34)ccc21`, the EC50 stood at 1980 nM.

In turn, `O=C1[C@@H](Oc2cn3c(-c4ccc(OC(F)F)cc4)nnc3cn2)[C@@H](c2ccc(F)c(F)c2)N1C1CC1` had an EC50 of 10000 nM.

As for `FC(F)Oc1ccc(-c2nnc3cncc(Oc4ccc5ccc(C(F)(F)F)nc5c4)n23)cc1`, the EC50 was 1630 nM. Compared with the last molecule, the EC50 is about 6.1-fold lower.

As to `Cc1noc2cc(Oc3cncc4nnc(-c5ccc(OC(F)F)cc5)n34)ccc12`, the EC50 was 1930 nM.

`CC1=CC(C)(C)Oc2cc(Oc3cncc4nnc(-c5ccc(OC(F)F)cc5)n34)ccc21`: a half-maximal response (EC50) required 1820 nM.

As for `Cn1ncc2ccc(Oc3cncc4nnc(-c5ccc(OC(F)F)cc5)n34)cc21`, the concentration for a half-maximal effect (EC50) came out at 10000 nM.
